Measured values from the supplement of paper PMC11061612.

Tests used:
Assay in all cases: combination Emax (second highest fraction inhibited in the dose matrix, 72 h); higher = more inhibition; extreme values may be limits of the assay
[1] = test system: D-283MED (Other Solid Carcinomas)
Summary of the method: (§1)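 After 24 hours at 37°C and 5% CO2 in 1536-well plates, cells in DMEM/F12 or RPMI plus 10% FBS received two-drug dose matrices for 72 hours. Viability came from CellTiter-Glo 2.0 luminescence and was scaled as inhibition, anchored at 0 by vehicle wells and at 1 by blank wells. Combination Emax is taken as the second-highest inhibition in the matrix, and Bliss excess as the observed combination effect less EA + EB − EA·EB, with EA and EB the single-agent effects.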

[2] = test system: D-392MG (Glioblastoma)
Summary of the method: as §1

[3] = test system: DOK (Oral Cavity Carcinoma)
Summary of the method: as §1

[4] = test system: HCC-827 (Lung Adenocarcinoma)
Summary of the method: as §1

[5] = test system: HCC1143 (Breast Carcinoma)
Summary of the method: as §1

[6] = test system: HCT-116 (Colorectal Carcinoma)
Summary of the method: as §1

[7] = test system: HLE (Hepatocellular Carcinoma)
Summary of the method: as §1

[8] = test system: KG-1 (Acute Myeloid Leukemia)
Summary of the method: as §1

[9] = test system: MEG-01 (Chronic Myelogenous Leukemia)
Summary of the method: as §1

[10] = test system: SK-MEL-1 (Melanoma)
Summary of the method: as §1

[11] = test system: SK-UT-1 (Other Solid Carcinomas)
Summary of the method: as §1

[12] = test system: SW948 (Colorectal Carcinoma)
Summary of the method: as §1

Row | Structure (SMILES) | combination Emax [1] | combination Emax [2] | combination Emax [3] | combination Emax [4] | combination Emax [5] | combination Emax [6] | combination Emax [7] | combination Emax [8] | combination Emax [9] | combination Emax [10] | combination Emax [11] | combination Emax [12]
1 | Cc1cc2ncnn2cc1Nc1ncc2c(n1)n(C1CCOCC1)c(=O)n2C [AZD7648] + CCN(CCO)CCCOc1ccc2c(Nc3cc(CC(=O)Nc4cccc(F)c4)[nH]n3)ncnc2c1 [AZD2811] (first compound max 10 µM, 7x7, partner max 1 µM) | 0.74 | 0.329 | 0.47 | 0.24 | 0.403 | 0.528 | 0.433 | 0.386 | 0.507 | 0.3 | 0.341 | 0.737
2 | Cc1cc2ncnn2cc1Nc1ncc2c(n1)n(C1CCOCC1)c(=O)n2C [AZD7648] + C[C@@H]1COCCN1C2=NC(=NC(=C2)C3(CC3)[S@](=N)(=O)C)C4=C5C=CNC5=NC=C4 [AZD6738] (first compound max 10 µM, 7x7, partner max 10 µM) | 0.988 | 0.52 | 0.453 | 0.5 | 0.853 | 0.723 | 0.721 | 0.67 | 0.894 | 0.293 | 0.757 | 0.578
3 | CN(CCO)CC[C@H](CSc1ccccc1)Nc1ccc(S(=O)(=O)NC(=O)c2ccc(N3CCC([C@@H](O)c4ccccc4-c4ccc(Cl)cc4)CC3)cc2)cc1S(=O)(=O)C(F)(F)F [AZD4320] + C[C@@H]1COCCN1C2=NC(=NC(=C2)C3(CC3)[S@](=N)(=O)C)C4=C5C=CNC5=NC=C4 [AZD6738] (first compound max 1 µM, 7x7, partner max 10 µM) | 0.992 | 0.792 | 0.587 | 0.551 | 0.842 | 0.778 | 0.871 | 1 | 0.983 | 0.597 | 0.919 | 0.563
4 | CC(=O)Nc1cccc(-n2c(=O)n(C3CC3)c(=O)c3c(Nc4ccc(I)cc4F)n(C)c(=O)c(C)c32)c1 [Trametinib] + Cc1nc(-c2cn3c(n2)-c2ccc(-c4cnn(C(C)(C)C(N)=O)c4)cc2OCC3)n(C(C)C)n1 [Taselisib] (first compound max 1 µM, 7x7, partner max 10 µM) | 0.576 | 0.709 | 0.998 | 0.762 | 0.763 | 1 | 0.401 | 0.412 | 0.953 | 0.942 | 0.597 | 0.994
5 | CN(CCO)CC[C@H](CSc1ccccc1)Nc1ccc(S(=O)(=O)NC(=O)c2ccc(N3CCC([C@@H](O)c4ccccc4-c4ccc(Cl)cc4)CC3)cc2)cc1S(=O)(=O)C(F)(F)F [AZD4320] + CN(C)CCCOc1ccc(-c2ccc3ncc4c(c3c2)n(C2CCOCC2)c(=O)n4C)cn1 [AZD0156] (first compound max 1 µM, 7x7, partner max 1 µM) | 0.818 | 0.218 | 0.136 | 0.22 | 0.252 | 0.167 | 0.399 | 0.952 | 0.898 | 0.498 | 0.0694 | 0.248
6 | CCc1c2c(nc3ccc(O)cc13)-c1cc3c(c(=O)n1C2)COC(=O)[C@]3(O)CC [SN-38] + CN(C)CCCOc1ccc(-c2ccc3ncc4c(c3c2)n(C2CCOCC2)c(=O)n4C)cn1 [AZD0156] (first compound max 0.3 µM, 7x7, partner max 1 µM) | 0.954 | 0.609 | 0.488 | 0.526 | 0.662 | 0.826 | 0.916 | 0.886 | 0.73 | 0.538 | 0.97 | 0.746
7 | COc1cccc(OCCCN)c1-c1cc(Nc2cnc(C#N)cn2)n[nH]1 [Prexasertib] + Cc1cc2ncnn2cc1Nc1ncc2c(n1)n(C1CCOCC1)c(=O)n2C [AZD7648] (first compound max 1 µM, 7x7, partner max 10 µM) | 0.995 | 0.519 | 0.499 | 0.566 | 0.883 | 0.565 | 0.842 | 0.912 | 0.926 | 0.653 | 0.957 | 0.812
8 | COc1cc2c(cc1OCCCCCOc1cc3c(cc1OC)C(=O)N1C=C(C)C[C@H]1C=N3)N=C[C@@H]1CC(C)=CN1C2=O [SG3199] + O=C(c1cc(Cc2n[nH]c(=O)c3ccccc23)ccc1F)N1CCN(C(=O)C2CC2)CC1 [Olaparib] (first compound max 0.001 µM, 7x7, partner max 10 µM) | 0.417 | 0.111 | 0.121 | 0.131 | 0.225 | 0.314 | 0.143 | 0.289 | 0.111 | 0.134 | 0.046 | 0.185
9 | Cc1cc2ncnn2cc1Nc1ncc2c(n1)n(C1CCOCC1)c(=O)n2C [AZD7648] + CN(C)CCCOc1ccc(-c2ccc3ncc4c(c3c2)n(C2CCOCC2)c(=O)n4C)cn1 [AZD0156] (first compound max 10 µM, 7x7, partner max 1 µM) | 0.496 | 0.301 | 0.249 | 0.297 | 0.242 | 0.317 | 0.31 | 0.323 | 0.361 | 0.347 | 0.214 | 0.545
10 | Cc1c2c(nn1C)CSCc1cc(n(C)n1)CSc1cc(c3ccccc3c1)OCCCc1c(C(=O)O)n(C)c3c-2c(Cl)ccc13 [AZD5991] + CCN(CCO)CCCOc1ccc2c(Nc3cc(CC(=O)Nc4cccc(F)c4)[nH]n3)ncnc2c1 [AZD2811] (first compound max 1 µM, 7x7, partner max 1 µM) | 0.639 | 0.403 | 0.883 | 0.245 | 0.371 | 0.438 | 0.579 | 1 | 0.758 | 0.312 | 0.367 | 0.587
11 | CN(CCO)CC[C@H](CSc1ccccc1)Nc1ccc(S(=O)(=O)NC(=O)c2ccc(N3CCC([C@@H](O)c4ccccc4-c4ccc(Cl)cc4)CC3)cc2)cc1S(=O)(=O)C(F)(F)F [AZD4320] + C1CN(CCC1(C(=O)N[C@@H](CCO)C2=CC=C(C=C2)Cl)N)C3=NC=NC4=C3C=CN4 [Capivasertib] (first compound max 1 µM, 7x7, partner max 3 µM) | 0.763 | 0.189 | 0.39 | 0.201 | 0.297 | 0.146 | 0.274 | 0.929 | 0.901 | 0.419 | 0.226 | 0.624
12 | Cc1c2c(nn1C)CSCc1cc(n(C)n1)CSc1cc(c3ccccc3c1)OCCCc1c(C(=O)O)n(C)c3c-2c(Cl)ccc13 [AZD5991] + C[C@@H]1COCCN1C2=NC(=NC(=C2)C3(CC3)[S@](=N)(=O)C)C4=C5C=CNC5=NC=C4 [AZD6738] (first compound max 1 µM, 7x7, partner max 10 µM) | 0.992 | 0.427 | 0.633 | 0.426 | 0.827 | 0.63 | 0.802 | 1 | 0.931 | 0.226 | 0.801 | 0.563
13 | Cc1c2c(nn1C)CSCc1cc(n(C)n1)CSc1cc(c3ccccc3c1)OCCCc1c(C(=O)O)n(C)c3c-2c(Cl)ccc13 [AZD5991] + C=CCn1c(=O)c2cnc(Nc3ccc(N4CCN(C)CC4)cc3)nc2n1-c1cccc(C(C)(C)O)n1 [AZD1775] (first compound max 1 µM, partner max 1 µM) | 0.971 | 0.417 | 0.758 | 0.401 | 0.797 | 0.641 | 0.849 | 1 | 0.927 | 0.402 | 0.613 | 0.714
14 | CN(CCO)CC[C@H](CSc1ccccc1)Nc1ccc(S(=O)(=O)NC(=O)c2ccc(N3CCC([C@@H](O)c4ccccc4-c4ccc(Cl)cc4)CC3)cc2)cc1S(=O)(=O)C(F)(F)F [AZD4320] + Cc1cc2ncnn2cc1Nc1ncc2c(n1)n(C1CCOCC1)c(=O)n2C [AZD7648] (first compound max 1 µM, 7x7, partner max 10 µM) | 0.923 | 0.169 | 0.362 | 0.182 | 0.282 | 0.229 | 0.33 | 0.966 | 0.925 | 0.606 | 0.163 | 0.393
15 | Cc1c2c(nn1C)CSCc1cc(n(C)n1)CSc1cc(c3ccccc3c1)OCCCc1c(C(=O)O)n(C)c3c-2c(Cl)ccc13 [AZD5991] + Cc1cc2ncnn2cc1Nc1ncc2c(n1)n(C1CCOCC1)c(=O)n2C [AZD7648] (first compound max 1 µM, 7x7, partner max 10 µM) | 0.435 | 0.271 | 0.421 | 0.288 | 0.267 | 0.311 | 0.515 | 1 | 0.468 | 0.303 | 0.282 | 0.436
16 | Cc1c2c(nn1C)CSCc1cc(n(C)n1)CSc1cc(c3ccccc3c1)OCCCc1c(C(=O)O)n(C)c3c-2c(Cl)ccc13 [AZD5991] + C1CN(CCC1(C(=O)N[C@@H](CCO)C2=CC=C(C=C2)Cl)N)C3=NC=NC4=C3C=CN4 [Capivasertib] (first compound max 1 µM, 7x7, partner max 3 µM) | 0.367 | 0.495 | 0.383 | 0.314 | 0.252 | 0.24 | 0.279 | 1 | 0.361 | 0.118 | 0.24 | 0.569
17 | COc1cccc(OCCCN)c1-c1cc(Nc2cnc(C#N)cn2)n[nH]1 [Prexasertib] + O=C(c1cc(Cc2n[nH]c(=O)c3ccccc23)ccc1F)N1CCN(C(=O)C2CC2)CC1 [Olaparib] (first compound max 1 µM, 7x7, partner max 10 µM) | 0.982 | 0.491 | 0.418 | 0.523 | 0.735 | 0.744 | 0.842 | 1 | 0.893 | 0.596 | 0.957 | 0.838
